# Assays:
# [1] = tested on: Mycobacterium tuberculosis; assay: Antimycobacterial activity against Mycobacterium tuberculosis H37Rv; type: functional
# HL-60 [2] = assay: Photocytotoxicity against human HL60 cells irradiated with 1.25 J cm^-2 UVA dose after 72 hrs by MTT assay; type: functional; details: HL-60, light or radiation study
# [3] = Inhibition of oxygen evolution rate in spinach chloroplasts; type: functional, Spinacia oleracea
# [4] = tested on: Mycobacterium tuberculosis; assay: Antimycobacterial activity against Mycobacterium tuberculosis H37Rv relative to control; type: functional; set-up: concentration or dose not given beside the values
# HL-60 [5] = assay: Induction of apoptosis in human HL60 cells irradiated with 2.5 J cm^-2 CUVA assessed as appearance of sub G1 peak at 5 mM after 48 hrs; type: functional
# HL-60 [6] = assay: Cell cycle arrest in human HL60 cells irradiated with 2.5 J cm^-2 CUVA assessed as accumulation at G1 phase at 5 mM after 48 hrs; type: functional
# HL-60 [7] = assay: Cell cycle arrest in human HL60 cells irradiated with 2.5 J cm^-2 CUVA assessed as accumulation at S phase at 2.5 mM after 48 hrs; type: functional
# HL-60 [8] = assay: Cell cycle arrest in human HL60 cells irradiated with 2.5 J cm^-2 CUVA assessed as accumulation at G2 phase at 2.5 mM after 72 hrs; type: functional
# HL-60 [9] = assay: Induction of apoptosis in human HL60 cells irradiated with 2.5 J cm^-2 CUVA assessed as appearance of sub G1 peak at 5 mM after 72 hrs; type: functional
# HL-60 [10] = assay: Cell cycle arrest in human HL60 cells irradiated with 2.5 J cm^-2 CUVA assessed as accumulation at G1 phase at 2.5 mM after 72 hrs; type: functional
# HL-60 [11] = assay: Cell cycle arrest in human HL60 cells irradiated with 2.5 J cm^-2 CUVA assessed as accumulation at G2 phase at 5 mM after 72 hrs; type: functional
# HL-60 [12] = assay: Cell cycle arrest in human HL60 cells irradiated with 2.5 J cm^-2 CUVA assessed as accumulation at G1 phase at 2.5 mM after 24 hrs; type: functional
# HL-60 [13] = assay: Induction of apoptosis in human HL60 cells irradiated with 2.5 J cm^-2 CUVA assessed as appearance of sub G1 peak at 2.5 mM after 72 hrs; type: functional
# HL-60 [14] = assay: Cell cycle arrest in human HL60 cells irradiated with 2.5 J cm^-2 CUVA assessed as accumulation at G2 phase at 5 mM after 24 hrs; type: functional
# HL-60 [15] = assay: Cell cycle arrest in human HL60 cells irradiated with 2.5 J cm^-2 CUVA assessed as accumulation at S phase at 5 mM after 48 hrs; type: functional
# HL-60 [16] = assay: Induction of apoptosis in human HL60 cells irradiated with 2.5 J cm^-2 CUVA assessed as appearance of sub G1 peak at 2.5 mM after 48 hrs; type: functional
# HL-60 [17] = assay: Cell cycle arrest in human HL60 cells irradiated with 2.5 J cm^-2 CUVA assessed as accumulation at S phase at 5 mM after 24 hrs; type: functional
# HL-60 [18] = assay: Cell cycle arrest in human HL60 cells irradiated with 2.5 J cm^-2 CUVA assessed as accumulation at S phase at 2.5 mM after 72 hrs; type: functional
# Chlorella vulgaris = assay: Antialgal activity against Chlorella vulgaris assessed as inhibition of chlorophyll production; type: functional, organism-based
# HL-60 [19] = assay: Cell cycle arrest in human HL60 cells irradiated with 2.5 J cm^-2 CUVA assessed as accumulation at G1 phase at 2.5 mM after 48 hrs; type: functional
# HL-60 [20] = assay: Cell cycle arrest in human HL60 cells irradiated with 2.5 J cm^-2 CUVA assessed as accumulation at S phase at 5 mM after 72 hrs; type: functional
# LoVo [21] = assay: Photocytotoxicity against human LoVo cells irradiated with 1.25 J cm^-2 UVA dose after 72 hrs by MTT assay; type: functional; details: light or radiation study
# HL-60 [22] = assay: Induction of apoptosis in human HL60 cells irradiated with 2.5 J cm^-2 CUVA assessed as appearance of sub G1 peak at 5 mM after 24 hrs; type: functional
# LoVo [23] = assay: Photocytotoxicity against human LoVo cells irradiated with 2.5 J cm^-2 UVA dose after 72 hrs by MTT assay; type: functional; details: light or radiation study
# HL-60 [24] = assay: Cell cycle arrest in human HL60 cells irradiated with 2.5 J cm^-2 CUVA assessed as accumulation at G2 phase at 2.5 mM after 48 hrs; type: functional
# HL-60 [25] = assay: Induction of apoptosis in human HL60 cells irradiated with 2.5 J cm^-2 CUVA assessed as appearance of sub G1 peak at 2.5 mM after 24 hrs; type: functional
# HL-60 [26] = assay: Cell cycle arrest in human HL60 cells irradiated with 2.5 J cm^-2 CUVA assessed as accumulation at G2 phase at 5 mM after 48 hrs; type: functional
# HL-60 [27] = assay: Cell cycle arrest in human HL60 cells irradiated with 2.5 J cm^-2 CUVA assessed as accumulation at S phase at 2.5 mM after 24 hrs; type: functional
# HL-60 [28] = assay: Cell cycle arrest in human HL60 cells irradiated with 2.5 J cm^-2 CUVA assessed as accumulation at G1 phase at 5 mM after 24 hrs; type: functional
# HL-60 [29] = assay: Cell cycle arrest in human HL60 cells irradiated with 2.5 J cm^-2 CUVA assessed as accumulation at G2 phase at 2.5 mM after 24 hrs; type: functional
# HL-60 [30] = assay: Cell cycle arrest in human HL60 cells irradiated with 2.5 J cm^-2 CUVA assessed as accumulation at G1 phase at 5 mM after 72 hrs; type: functional
smiles,measurement,setting,value
c1ccc(Nc2nc(Nc3ccccc3)nc(Nc3ccccc3)n2)cc1,MIC,[1],> 6.25 µg/mL
same,GI50,HL-60 [2],> 10 mM
same,IC50,[3],1.072 mmol/dm3
same,Inhibition,[4],0%
Oc1nc(O)nc(O)n1,MIC,[1],> 6.25 µg/mL
same,GI50,HL-60 [2],4.3 mM
same,IC50,[3],0.081 mmol/dm3
same,Inhibition,[4],39%
CC(=O)Nc1nc(NC(C)=O)nc(NC(C)=O)n1,Activity,HL-60 [5],26%
same,Activity,HL-60 [6],50.3%
same,Activity,HL-60 [7],45%
same,Activity,HL-60 [8],12%
same,Activity,HL-60 [9],46%
same,Activity,HL-60 [10],45.2%
same,Activity,HL-60 [11],6.9%
same,Activity,HL-60 [12],29.3%
same,MIC,[1],> 6.25 µg/mL
same,Activity,HL-60 [13],40.5%
same,Activity,HL-60 [14],11.1%
same,Activity,HL-60 [15],38.6%
same,Activity,HL-60 [16],27%
same,GI50,HL-60 [2],6.8 mM
same,Activity,HL-60 [17],54.3%
same,Activity,HL-60 [18],43.8%
same,IC50,[3],0.148 mmol/dm3
same,IC50,Chlorella vulgaris,0.208 mmol/dm3
same,Activity,HL-60 [19],44.5%
same,Activity,HL-60 [20],37.1%
same,GI50,LoVo [21],3.5 mM
same,Activity,HL-60 [22],21%
same,GI50,LoVo [23],1.89 mM
same,Activity,HL-60 [24],10.3%
same,Activity,HL-60 [25],13.2%
same,Activity,HL-60 [26],11.7%
same,Activity,HL-60 [27],58.4%
same,Inhibition,[4],11%
same,Activity,HL-60 [28],34.2%
same,Activity,HL-60 [29],10.8%
same,Activity,HL-60 [30],57.3%
CNc1nc(NC)nc(NC)n1,MIC,[1],> 6.25 µg/mL
same,GI50,HL-60 [2],> 10 mM
same,IC50,[3],0.118 mmol/dm3
same,IC50,Chlorella vulgaris,0.356 mmol/dm3
same,Inhibition,[4],24%
COc1ccc(Nc2nc(Nc3ccc(OC)cc3)nc(Nc3ccc(OC)cc3)n2)cc1,MIC,[1],> 6.25 µg/mL
same,GI50,HL-60 [2],3.4 mM
same,IC50,[3],0.241 mmol/dm3
same,IC50,Chlorella vulgaris,0.079 mmol/dm3
same,Inhibition,[4],72%
CCN(CC)c1nc(N(CC)CC)nc(N(CC)CC)n1,MIC,[1],> 6.25 µg/mL
same,GI50,HL-60 [2],> 10 mM
same,IC50,[3],0.244 mmol/dm3
same,IC50,Chlorella vulgaris,0.067 mmol/dm3
same,GI50,LoVo [21],> 20 mM
same,GI50,LoVo [23],12.5 mM
same,Inhibition,[4],0%
CN(C)c1nc(N(C)C)nc(N(C)C)n1 [ALTRETAMINE],MIC,[1],> 6.25 µg/mL
same,GI50,HL-60 [2],> 10 mM
same,IC50,[3],0.486 mmol/dm3
same,IC50,Chlorella vulgaris,0.125 mmol/dm3
same,GI50,LoVo [21],17.2 mM
same,GI50,LoVo [23],10.3 mM
same,Inhibition,[4],28%
CN(C)C(=O)Nc1ccc(Cl)c(Cl)c1 [DCMU],IC50,[3],0.0019 mmol/dm3
same,IC50,Chlorella vulgaris,0.0073 mmol/dm3
CO[C@H]1/C=C/O[C@@]2(C)Oc3c(C)c(O)c4c(O)c(c(/C=N/N5CCN(C)CC5)c(O)c4c3C2=O)NC(=O)/C(C)=C\C=C\[C@H](C)[C@H](O)[C@@H](C)[C@@H](O)[C@@H](C)[C@H](OC(C)=O)[C@@H]1C [RIFAMPIN],MIC,[1],0.125 µg/mL
same,Inhibition,[4],100%
